Patent US20200038399A1, “FORMULATIONS, METHODS, KIT, AND DOSAGE FORMS FOR TREATING BACTERIAL INFECTION” (Motif BioSciences Inc., priority 2016, published 2020)
Each block holds one molecule with its values, some of them ahead of it. Positions of bridges follow the written chain, without caps; N, C: chain ends. Non-standard residues stand in square brackets, D forms with d. Residues, ends and D or L forms follow the SMILES beside them. *: point of attachment. Ileψ(thiazoline)Cys = CC[C@H](C)[C@H](N)C1=N[C@H](C(=O)*)CS1; dOrn = NCCC[C@@H](N)C(=O)O

Assays:
[1] = test system: Moraxella catarrhalis RA 21; assay: checkerboard synergy assay with iclaprim; format: cell-based; conditions: antibiotic in combination with iclaprim; M. catarrhalis RA 21
Experimental: (§1) The synergistic potential of iclaprim against Gram-positive and Gram-negative bacteria was determined using the checkerboard assay as described in Eliopoulos GM and Moellering, Jr. RC (1991), Antimicrobial combinations, pp. 432-492, in V. Lorian (ed.), Antibiotics in laboratory medicine, 3rd Ed., The Williams & Wilkins Co., Baltimore, the entire disclosure of which is herein incorporated by reference, allowing multiple test concentrations of iclaprim to be assayed in the presence of various concentrations of the other antibiotic in microtiter plates. The same growth media and conditions were used as described in 3.2 below.
(§2) Two different dilutions were used for iclaprim depending on the MIC determined for the bacterium. […] Iclaprim and the other antibiotic being tested were also dispensed alone in the last row and in the last column, respectively, as controls.
(§3) The Fractional Inhibitory Concentrations (FIC) for each added agent were calculated and used to determine the sum of FIC (ΣFIC) indicative of the synergistic potential of a given combination as described in Veyssier P. (1999), Inhibiteurs de la dihydrofolate reductase, nitrohétérocycles (furanes) et 8-hydroxyquinoleines, pp. 995-1027, in A. Bryskier (ed.), Antibiotiques agents antibatériens et antifongiques, 1st Ed., Ellipses Edition Marketing SA, Paris, the entire disclosure of which is herein incorporated by reference. Synergy was defined whereby the ΣFIC was <0.5, indifference (no synergy nor antagonism) whereby ΣFIC was ≥0.5 but ≤4, and antagonism whereby ΣFIC was >4. Additivity as a special form of indifference was defined whereby the ΣFIC was ≥0.5 but <1, for example as described in Stevens, D L et al. (1998), In vitro antimicrobial effects of various combinations of penicillin and clindamycin against four strains of Streptococcus pyogenes, J. Antimicrob. Chemother. 42: 1266-1268, the entire disclosure of which is herein incorporated by reference.

[2] = test system: Staphylococcus aureus ATCC 25923; assay: checkerboard synergy assay with iclaprim; format: cell-based; conditions: antibiotic in combination with iclaprim; S. aureus 25923
Experimental: as §1, §2, §3

[3] = test system: Haemophilus influenzae ATCC 49766; assay: checkerboard synergy assay with iclaprim; format: cell-based; conditions: antibiotic in combination with iclaprim; H. influenzae 49766
Experimental: as §1, §2, §3

[4] = test system: Klebsiella pneumoniae ATCC 33495; assay: checkerboard synergy assay with iclaprim; format: cell-based; conditions: antibiotic in combination with iclaprim; K. pneumoniae 33495
Experimental: as §1, §2, §3

S. aureus 101 [5] = assay: MIC determination; format: cell-based, Staphylococcus aureus; conditions: Staphylococcus aureus, 101, 18 h; read-out: Minimum inhibitory concentrations (MIC)
Experimental: (§4) Minimum inhibitory concentration (MIC) determination.
(§5) In order to choose the appropriate concentrations to be tested in the checkerboard experiments, minimum inhibitory concentrations (MICs) were determined first. […] Table 6) in microtiter plates. Stock solutions (10 mg/ml) of reference antibiotics were prepared in DMSO (except for tobramycin, gentamicin, lomefloxacin, tetracycline) and stored at 4° C. The bacteria were grown in Mueller-Hinton Broth (BBL Mueller-Hinton Broth II, cation adjusted). S. pneumoniae was grown in Mueller-Hinton Broth supplemented with 5% (v/v) lysed sheep blood. For the growth of H. influenzae HTM (Haemophilus test medium) was used containing Mueller-Hinton broth, yeast extract ([…], Difco) and supplemented with NAD and hematin (HTM Supplement, Oxoid SR0158E). M. catarrhalis was grown in Brain Heart Infusion medium (Oxoid). The bacteria were incubated for 18 hours at 37° C. in ambient air except for S. pneumoniae, H. influenzae and M. catarrhalis, which were incubated in the presence of 5% CO2. The MIC was determined as the lowest concentration of an individual drug that lead to no visible growth.

S. pneumoniae 1/1 [6] = assay: MIC determination; format: cell-based, Streptococcus pneumoniae; conditions: Streptococcus pneumoniae; S. pneumoniae 1/1; 18 hours at 37° C., 5% CO2; read-out: Minimum inhibitory concentrations (MIC)
Experimental: as §4, §5

[7] = test system: Streptococcus pneumoniae ATCC 49619; assay: MIC determination; format: cell-based; conditions: Streptococcus pneumoniae, ATCC49619; S. pneumoniae 49619; 18 hours at 37° C., 5% CO2; read-out: Minimum inhibitory concentrations (MIC)
Experimental: as §4, §5

[8] = test system: Moraxella catarrhalis RA 21; assay: MIC determination; format: cell-based; conditions: Moraxella catarrhalis, RA21; M. catarrhalis RA 21; 18 hours at 37° C., 5% CO2; read-out: Minimum inhibitory concentrations (MIC)
Experimental: as §4, §5

[9] = test system: Staphylococcus aureus ATCC 25923; assay: MIC determination; format: cell-based; conditions: Staphylococcus aureus, ATCC25923; S. aureus 25923; 18 hours at 37° C.; read-out: Minimum inhibitory concentrations (MIC)
Experimental: as §4, §5

[10] = test system: Haemophilus influenzae ATCC 49766; assay: MIC determination; format: cell-based; conditions: Haemophilus influenzae, ATCC49766; H. Influenza 49766; 18 hours at 37° C., 5% CO2; read-out: Minimum inhibitory concentrations (MIC)
Experimental: as §4, §5

[11] = test system: Klebsiella pneumoniae ATCC 33495; assay: MIC determination; format: cell-based; conditions: Klebsiella pneumoniae, ATCC33495; K. pneumonia 33495; 18 hours at 37° C.; read-out: Minimum inhibitory concentrations (MIC)
Experimental: as §4, §5

[12] = test system: Streptococcus pneumoniae ATCC 49619; assay: checkerboard synergy assay with iclaprim; format: cell-based; conditions: antibiotic in combination with iclaprim; S. pneumoniae 49619
Experimental: as §1, §2, §3

S. aureus 101 [13] = assay: checkerboard synergy assay with iclaprim; format: cell-based, Staphylococcus aureus; conditions: antibiotic in combination with iclaprim
Experimental: as §1, §2, §3

S. pneumoniae 1/1 [14] = assay: checkerboard synergy assay with iclaprim; format: cell-based, Streptococcus pneumoniae; conditions: antibiotic in combination with iclaprim
Experimental: as §1, §2, §3

Compound: CC1(C)S[C@@H]2[C@H](NC(=O)[C@H](N)c3ccccc3)C(=O)N2[C@H]1C(=O)O [Ampicillin]
- Con (Conclusion) [1]: Ind (Indifference (Ind))
- Σ FIC [2]: 1.00-1.00
- Con (Conclusion) [3]: Ind (Indifference (Ind))
- Σ FIC [3]: 1.13-1.50
- Con (Conclusion) [4]: Ad (Additivity (Ad))
- MIC (S. aureus 101 [5]): > 128 µg/mL
- MIC (S. pneumoniae 1/1 [6]): 16 µg/mL
- MIC [7]: 0.5 µg/mL
- MIC [8]: 16 µg/mL
- MIC [9]: 0.5 µg/mL
- MIC [10]: 1 µg/mL
- MIC [11]: > 128 µg/mL

- MIC (S. aureus 101 [5]): 32 µg/mL
- MIC (S. pneumoniae 1/1 [6]): 8 µg/mL
- MIC [7]: 32 µg/mL
- MIC [8]: 8 µg/mL
- MIC [9]: > 128 µg/mL
- MIC [10]: > 128 µg/mL
- MIC [11]: > 128 µg/mL
Compound: CC[C@H](C)[C@H](N)C1=N[C@H](C(=O)N[C@@H](CC(C)C)C(=O)N[C@H](CCC(=O)O)C(=O)N[C@H](C(=O)N[C@H]2CCCCNC(=O)[C@H](CC(N)=O)NC(=O)[C@@H](CC(=O)O)NC(=O)[C@H](Cc3cnc[nH]3)NC(=O)[C@@H](Cc3ccccc3)NC(=O)[C@H]([C@@H](C)CC)NC(=O)[C@@H](CCCN)NC2=O)[C@@H](C)CC)CS1 [Bacitracin] ({Ileψ(thiazoline)Cys}-L[dE]IK[dOrn]I[dF]H[dD]N; lactam 4-C)
- Σ FIC [12]: 0.75-1.13
- Con (Conclusion) [1]: Ad (Additivity (Ad))
- Σ FIC [1]: 0.56-1.25
- Σ FIC [2]: 0.74-1.13
- Con (Conclusion) [3]: Ind (Indifference (Ind))
- Σ FIC [3]: 1.01-1.50
- Con (Conclusion) [4]: Ind (Indifference (Ind))
- Σ FIC [4]: 1.01-1.50
- Σ FIC (S. aureus 101 [13]): 0.75-1.13
- Σ FIC (S. pneumoniae 1/1 [14]): 0.51-1.06

Compound: CO/N=C(\C(=O)N[C@@H]1C(=O)N2C(C(=O)O)=C(COC(C)=O)CS[C@H]12)c1csc(N)n1 [Cefotaxime]
- Con (Conclusion) [1]: Ad (Additivity (Ad))
- Σ FIC [1]: 0.56-1.03
- Σ FIC [2]: 1.03-1.50
- Con (Conclusion) [3]: Ad (Additivity (Ad))
- Con (Conclusion) [4]: Ind (Indifference (Ind))
- Σ FIC [4]: 1.13-1.50
- MIC (S. aureus 101 [5]): 32 µg/mL
- Σ FIC (S. aureus 101 [13]): 1.06-1.50
- MIC (S. pneumoniae 1/1 [6]): 8 µg/mL
- MIC [7]: 0.25 µg/mL
- MIC [8]: 4 µg/mL
- MIC [9]: 4 µg/mL
- MIC [10]: 0.063 µg/mL
- MIC [11]: 0.5 µg/mL
- Σ FIC (S. pneumoniae 1/1 [14]): 0.63-1.06

Compound: O=C(N[C@H](CO)[C@H](O)c1ccc([N+](=O)[O-])cc1)C(Cl)Cl [Chloramphenicol]
- Σ FIC [12]: 0.75-1.25
- Con (Conclusion) [1]: Ind (Indifference (Ind))
- Σ FIC [1]: 1.25-1.50
- Σ FIC [2]: 1.13-2.50
- Con (Conclusion) [3]: Ind (Indifference (Ind))
- Σ FIC [3]: 1.06-1.50
- Con (Conclusion) [4]: Ind (Indifference (Ind))
- Σ FIC [4]: 1.01-1.50
- MIC (S. aureus 101 [5]): 64 µg/mL
- Σ FIC (S. aureus 101 [13]): 0.63-1.13
- MIC (S. pneumoniae 1/1 [6]): 16 µg/mL
- MIC [7]: 4 µg/mL
- MIC [8]: 0.5 µg/mL
- MIC [9]: 8 µg/mL
- MIC [10]: 0.5 µg/mL
- MIC [11]: > 128 µg/mL

Compound: CO[C@H]1/C=C/O[C@@]2(C)Oc3c(C)c(O)c4c(O)c(c(/C=N/N5CCN(C)CC5)c(O)c4c3C2=O)NC(=O)/C(C)=C\C=C\[C@H](C)[C@H](O)[C@@H](C)[C@@H](O)[C@@H](C)[C@H](OC(C)=O)[C@@H]1C [Rifampicin]
- Σ FIC [12]: 0.75-0.76
- Con (Conclusion) [1]: Ad (Additivity (Ad))
- Σ FIC [1]: 0.75-1.12
- Con (Conclusion) [3]: Ind (Indifference (Ind))
- Σ FIC [3]: 1.12-1.50
- Con (Conclusion) [4]: Ind (Indifference (Ind))
- Σ FIC [4]: 1.01-1.50
- MIC (S. aureus 101 [5]): 0.031 µg/mL
- MIC (S. pneumoniae 1/1 [6]): 0.063 µg/mL
- MIC [7]: 0.031 µg/mL
- MIC [8]: 0.063 µg/mL
- MIC [9]: 0.031 µg/mL
- MIC [10]: 0.063 µg/mL
- MIC [11]: > 128 µg/mL
- Σ FIC (S. pneumoniae 1/1 [14]): 0.56-1.12
